Like-named read-outs stand apart in the source and are kept apart here.
Tests used:
[1] = target: T1, Full-length human MNK1 (Homo sapiens, UniProt Q9BUB5, T385D); experiment: MNK1 biochemical IC50 assay (Caliper Mobility Shift Assay)
T1 construct: GST (N); purchased Carna Biosciences 02-145; host or cells: baculovirus expression system

[2] = target: T2, NUAK1 (Homo sapiens, UniProt O60285); experiment: Kinase selectivity screen NUAK1; conditions: read-out: % inhibition of NUAK1
T2 sequence (O60285 1-661): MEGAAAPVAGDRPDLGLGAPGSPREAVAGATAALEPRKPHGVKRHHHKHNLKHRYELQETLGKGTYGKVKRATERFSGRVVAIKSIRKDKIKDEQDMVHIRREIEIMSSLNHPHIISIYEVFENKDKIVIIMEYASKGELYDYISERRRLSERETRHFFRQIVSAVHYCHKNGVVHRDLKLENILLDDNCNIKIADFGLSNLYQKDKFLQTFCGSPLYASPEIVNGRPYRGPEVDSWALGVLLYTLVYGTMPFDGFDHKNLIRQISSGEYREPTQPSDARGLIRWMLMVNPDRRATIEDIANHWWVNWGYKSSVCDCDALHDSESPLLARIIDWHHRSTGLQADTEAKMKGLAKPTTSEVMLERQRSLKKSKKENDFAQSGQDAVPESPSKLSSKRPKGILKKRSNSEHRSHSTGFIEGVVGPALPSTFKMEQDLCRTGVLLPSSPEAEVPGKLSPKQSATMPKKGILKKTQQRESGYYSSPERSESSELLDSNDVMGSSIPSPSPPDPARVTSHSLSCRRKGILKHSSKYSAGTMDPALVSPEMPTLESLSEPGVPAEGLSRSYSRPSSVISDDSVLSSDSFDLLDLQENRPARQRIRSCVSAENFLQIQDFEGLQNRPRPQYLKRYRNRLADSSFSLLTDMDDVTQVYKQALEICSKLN

[3] = target: NTRK1 (Homo sapiens, UniProt P04629); experiment: Kinase selectivity screen NTRK1; conditions: read-out: % inhibition of NTRK1
[4] = target: PRKCA (Homo sapiens, UniProt P17252); experiment: Kinase selectivity screen PRKCA; conditions: read-out: % inhibition of PRKCA
[5] = target: MAP3K9 (Homo sapiens, UniProt P80192); experiment: Kinase selectivity screen MAP3K9; conditions: read-out: % inhibition of MAP3K9
[6] = target: LCK (Homo sapiens, UniProt P06239); experiment: Kinase selectivity screen LCK; conditions: read-out: % inhibition of LCK
[7] = target: T3, ULK2 (Homo sapiens, UniProt Q8IYT8); experiment: Kinase selectivity screen ULK2; conditions: read-out: % inhibition of ULK2
T3 sequence (Q8IYT8 1-1036): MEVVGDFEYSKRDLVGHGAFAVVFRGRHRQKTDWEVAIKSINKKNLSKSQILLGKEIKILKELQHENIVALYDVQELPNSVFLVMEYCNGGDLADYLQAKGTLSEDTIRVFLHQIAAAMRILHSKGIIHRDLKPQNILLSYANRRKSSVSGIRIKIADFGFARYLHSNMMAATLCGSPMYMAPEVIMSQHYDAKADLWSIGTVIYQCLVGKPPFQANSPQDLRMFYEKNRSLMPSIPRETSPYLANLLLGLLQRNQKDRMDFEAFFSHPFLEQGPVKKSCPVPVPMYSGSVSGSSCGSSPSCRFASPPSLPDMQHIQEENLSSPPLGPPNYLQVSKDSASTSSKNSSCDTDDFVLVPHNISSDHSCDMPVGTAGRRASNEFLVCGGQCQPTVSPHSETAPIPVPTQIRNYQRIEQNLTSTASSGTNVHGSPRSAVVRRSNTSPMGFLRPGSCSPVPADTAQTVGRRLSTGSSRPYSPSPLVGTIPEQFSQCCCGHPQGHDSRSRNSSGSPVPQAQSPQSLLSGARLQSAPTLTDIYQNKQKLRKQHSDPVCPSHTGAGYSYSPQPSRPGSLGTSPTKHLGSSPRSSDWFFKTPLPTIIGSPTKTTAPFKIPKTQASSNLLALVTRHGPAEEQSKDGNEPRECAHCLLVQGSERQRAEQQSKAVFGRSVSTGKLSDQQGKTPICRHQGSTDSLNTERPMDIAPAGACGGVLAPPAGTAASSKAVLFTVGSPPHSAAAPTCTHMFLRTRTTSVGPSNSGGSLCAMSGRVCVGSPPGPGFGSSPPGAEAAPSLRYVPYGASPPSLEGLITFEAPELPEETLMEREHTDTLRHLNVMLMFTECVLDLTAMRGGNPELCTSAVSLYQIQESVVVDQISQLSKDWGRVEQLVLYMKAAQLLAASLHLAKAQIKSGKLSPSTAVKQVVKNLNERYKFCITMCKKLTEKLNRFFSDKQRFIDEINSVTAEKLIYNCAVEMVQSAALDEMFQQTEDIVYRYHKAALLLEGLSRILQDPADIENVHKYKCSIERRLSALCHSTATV

[8] = read-out: P(IC50) MNK1 (converted)

LCK, sequence (P06239 whole entry, species assumed): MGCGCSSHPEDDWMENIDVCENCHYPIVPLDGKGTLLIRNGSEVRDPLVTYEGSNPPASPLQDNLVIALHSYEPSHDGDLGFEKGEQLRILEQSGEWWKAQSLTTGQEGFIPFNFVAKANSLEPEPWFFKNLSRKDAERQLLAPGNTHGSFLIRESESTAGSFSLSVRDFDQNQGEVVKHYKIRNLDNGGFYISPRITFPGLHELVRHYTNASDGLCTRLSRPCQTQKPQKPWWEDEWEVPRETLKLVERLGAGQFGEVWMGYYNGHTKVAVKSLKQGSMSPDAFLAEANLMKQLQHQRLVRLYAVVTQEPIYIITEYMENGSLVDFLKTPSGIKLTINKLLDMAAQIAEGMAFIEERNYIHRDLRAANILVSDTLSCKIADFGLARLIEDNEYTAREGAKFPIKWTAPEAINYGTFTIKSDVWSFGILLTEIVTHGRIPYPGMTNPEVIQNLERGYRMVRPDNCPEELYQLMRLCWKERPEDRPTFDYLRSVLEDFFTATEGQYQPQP
NTRK1, sequence (P04629 33-796, species assumed): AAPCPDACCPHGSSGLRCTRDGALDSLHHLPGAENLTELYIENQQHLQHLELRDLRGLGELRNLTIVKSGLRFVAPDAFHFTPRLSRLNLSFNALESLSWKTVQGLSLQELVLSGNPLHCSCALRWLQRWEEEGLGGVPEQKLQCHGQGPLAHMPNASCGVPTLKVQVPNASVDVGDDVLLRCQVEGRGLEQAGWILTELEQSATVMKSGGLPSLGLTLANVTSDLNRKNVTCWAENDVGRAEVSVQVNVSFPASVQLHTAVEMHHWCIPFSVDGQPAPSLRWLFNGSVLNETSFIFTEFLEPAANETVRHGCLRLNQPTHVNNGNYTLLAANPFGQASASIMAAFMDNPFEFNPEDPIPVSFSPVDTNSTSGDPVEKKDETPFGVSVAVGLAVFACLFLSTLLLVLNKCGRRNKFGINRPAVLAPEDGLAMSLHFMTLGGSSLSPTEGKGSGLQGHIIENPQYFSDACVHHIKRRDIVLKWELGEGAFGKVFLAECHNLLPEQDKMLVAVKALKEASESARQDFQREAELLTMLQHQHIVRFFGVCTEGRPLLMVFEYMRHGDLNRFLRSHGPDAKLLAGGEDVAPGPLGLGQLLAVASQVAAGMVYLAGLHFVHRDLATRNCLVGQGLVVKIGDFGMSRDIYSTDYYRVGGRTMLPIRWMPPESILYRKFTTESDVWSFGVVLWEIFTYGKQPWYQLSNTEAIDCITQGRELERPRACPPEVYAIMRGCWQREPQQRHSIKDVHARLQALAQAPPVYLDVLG
T1 sequence (Q9BUB5 1-424 isoform Q9BUB5-2 T344D): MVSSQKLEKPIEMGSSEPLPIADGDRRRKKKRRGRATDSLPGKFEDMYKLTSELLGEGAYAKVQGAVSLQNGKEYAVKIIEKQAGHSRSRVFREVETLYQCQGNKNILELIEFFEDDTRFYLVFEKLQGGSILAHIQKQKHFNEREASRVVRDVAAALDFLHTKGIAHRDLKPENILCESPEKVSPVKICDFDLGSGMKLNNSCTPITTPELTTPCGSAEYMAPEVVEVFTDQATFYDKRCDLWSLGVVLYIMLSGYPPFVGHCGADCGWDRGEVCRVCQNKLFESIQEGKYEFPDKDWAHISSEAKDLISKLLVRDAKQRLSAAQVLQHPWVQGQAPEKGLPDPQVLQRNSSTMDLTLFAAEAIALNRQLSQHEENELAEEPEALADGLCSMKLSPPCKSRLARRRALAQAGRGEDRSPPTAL
MAP3K9, sequence (P80192 whole entry, species assumed): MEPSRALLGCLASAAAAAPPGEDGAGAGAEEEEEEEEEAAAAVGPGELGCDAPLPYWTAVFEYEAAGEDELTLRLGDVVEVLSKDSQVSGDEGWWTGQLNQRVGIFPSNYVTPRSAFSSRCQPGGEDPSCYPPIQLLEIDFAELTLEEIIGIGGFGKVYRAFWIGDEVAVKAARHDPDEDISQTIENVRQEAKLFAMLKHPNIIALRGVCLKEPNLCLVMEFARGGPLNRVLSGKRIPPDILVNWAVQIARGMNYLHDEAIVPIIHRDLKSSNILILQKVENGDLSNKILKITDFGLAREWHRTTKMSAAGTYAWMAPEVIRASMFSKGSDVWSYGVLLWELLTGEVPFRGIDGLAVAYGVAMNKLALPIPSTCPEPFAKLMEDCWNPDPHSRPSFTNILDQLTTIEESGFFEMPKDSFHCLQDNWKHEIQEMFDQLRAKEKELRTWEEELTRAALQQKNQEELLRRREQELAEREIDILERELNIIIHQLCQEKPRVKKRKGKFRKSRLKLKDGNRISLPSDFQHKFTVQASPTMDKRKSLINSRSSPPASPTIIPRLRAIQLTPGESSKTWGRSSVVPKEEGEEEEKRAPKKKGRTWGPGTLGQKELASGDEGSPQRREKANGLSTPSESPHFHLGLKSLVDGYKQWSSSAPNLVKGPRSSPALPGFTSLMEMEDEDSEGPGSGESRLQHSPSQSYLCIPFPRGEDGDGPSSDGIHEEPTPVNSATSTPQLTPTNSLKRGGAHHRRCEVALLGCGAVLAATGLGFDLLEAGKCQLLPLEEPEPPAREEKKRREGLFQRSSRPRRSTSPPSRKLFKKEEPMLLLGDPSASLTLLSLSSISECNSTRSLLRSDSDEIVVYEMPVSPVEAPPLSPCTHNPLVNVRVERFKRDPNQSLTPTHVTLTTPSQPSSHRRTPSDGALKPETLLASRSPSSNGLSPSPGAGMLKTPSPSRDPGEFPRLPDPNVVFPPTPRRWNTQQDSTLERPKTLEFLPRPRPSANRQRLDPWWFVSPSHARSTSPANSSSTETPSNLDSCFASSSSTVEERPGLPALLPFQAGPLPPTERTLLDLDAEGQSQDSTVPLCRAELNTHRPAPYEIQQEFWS

O=C(NCC1CCNCC1)c1nc2c(N3CCc4cc(F)ccc43)ncnc2s1 [Example 58, 7-(5-fluoroindolin-1-yl)-N-(4-piperidylmethyl)thiazolo[5,4-d]pyrimidine-2-carboxamide]
IC50 [1, 8]: 5.01 nM | inhibition at 1 µM [2]: 33% | inhibition at 1 µM [3]: 0% | inhibition at 1 µM [4]: 0% | inhibition at 1 µM [5]: 24% | inhibition at 1 µM [6]: 0% | inhibition at 1 µM [7]: 21%

CN(C)CCCNC(=O)c1nc2c(N3CCc4cc(F)ccc43)ncnc2s1 [Example 64, N-[3-(dimethylamino)propyl]-7-(5-fluoroindolin-1-yl)thiazolo[5,4-d]pyrimidine-2-carboxamide]
IC50 [1, 8]: 2.51 nM | inhibition at 1 µM [2]: 43% | inhibition at 1 µM [3]: 5% | inhibition at 1 µM [4]: 0% | inhibition at 1 µM [5]: 1% | inhibition at 1 µM [6]: 0% | inhibition at 1 µM [7]: 81%

CC(C)Oc1cc(F)ccc1Nc1ncnc2sc(C(=O)NCC3CCNCC3)nc12 [Example 10, 7-(4-fluoro-2-isopropoxy-anilino)-N-(4-piperidylmethyl)thiazolo[5,4-d]pyrimidine-2-carboxamide]
IC50 [1]: 50.1 nM | inhibition at 1 µM [2]: 15% | inhibition at 1 µM [3]: 10% | inhibition at 1 µM [4]: 8% | inhibition at 1 µM [5]: 11% | inhibition at 1 µM [6]: 12% | inhibition at 1 µM [7]: 0%

Source: patent US10669284B2, “Fused thiazolopyrimidine derivatives as MNKS inhibitors” (LIFEARC, priority 2015, dated 2020)
